Experimental data taken from patent publication US8765181B2, “Nano anticancer micelles of vinca alkaloids entrapped in polyethylene glycolylated phospholipids” (Beijing Diacrid Medical Technology Co., Ltd, priority 2005, dated 2014).

System: Lewis lung cancer cells
Assay: Tumor growth inhibition assay in vivo of vinorelbine micellar preparation
Set-up: species or system Balb/c mice
Conditions: for Volume of tumor (mm^3): 5 mg/kg iv on the 1st, 8th and 15th day
Protocol: Fresh Lewis lung cancer cells (ATTC, CRL-1642) were inoculated subcutaneously into the axillary region of right forelimb of Balb/c mice (1×10^7/ml, 0.2 ml/mice). The mice (17-19 g, female) bearing tumor were then randomly divided into three groups, i.e. control group, free vinorelbine group (F-VNR) and vinorelbine micelle group (M-VNR), 6 mice each group. Administration was carried out on the next day to the inoculation. The doses of both F-VNR and M-VNR were 5 mg/kg (drug concentration: 0.5 mg/ml), iv volume 0.1 ml/10 g body weight, and the dose of the control group was iv 0.1 ml/10 g body weight of physiological saline. Dosing was performed once a week and continued for three weeks (dosing on the 1st, 8th and 15th day, respectively), wherein the length (a) and width (b) of the tumors were measured with vernier caliper on the 7th, 10th, 14th, 17th, and 21th day, respectively. The volume of the tumor was calculated according the formula V=a×b^2/2. […] The experiment results were shown in FIG. 5 as well as following table.

CCC1=C[C@@H]2CN(C1)Cc1c([nH]c3ccccc13)[C@@](C(=O)OC)(c1cc3c(cc1OC)N(C)[C@H]1[C@@](O)(C(=O)OC)[C@H](OC(C)=O)[C@]4(CC)C=CCN5CC[C@]31[C@@H]54)C2 [F-VNR, vinorelbine]
effect on growth of Lewis lung cancer tumor (in words) (5 mg/kg iv once a week for three weeks): almost ineffective
Volume of tumor (mm^3) (7 days): 217 ± 94.5 mm^3
Volume of tumor (mm^3) (10 days): 810.3 ± 407.6 mm^3
Volume of tumor (mm^3) (14 days): 1694.3 ± 789.1 mm^3
Volume of tumor (mm^3) (17 days): 2460.1 ± 1367.1 mm^3
Volume of tumor (mm^3) (21 days): 5163 ± 2623.8 mm^3
